Measured values as given in paper PMC7217150, “Synthesis, Modification, and Biological Evaluation of a Library of Novel Water‐Soluble Thiopyridone‐Based Organometallic Complexes and Their Unexpected (Biological) Behavior” (Chemistry (Weinheim an Der Bergstrasse, Germany), 2020).

Assays:
Assay type in all cases: cell-based, human
CH1/PA‐1 [1] = assay: Cell cycle distribution, flow cytometry with propidium iodide; details: for Cell cycle distribution G1, % / Cell cycle distribution G2/M, % / Cell cycle distribution S, %: 24 h, mean ± SD; for Relative change in cell cycle distribution G1, % / Relative change in cell cycle distribution G2/M, % / Relative change in cell cycle distribution S, %: difference to untreated control
Experimental: (§1) The influence of two ligands, as well as seven complexes on cell cycle distribution was tested in two of the cancer cell lines (SW480, CH1/PA‐1) by means of flow cytometry. The cell cycle distribution (G1, S, G2/M phase in %; Table S37) was investigated upon DNA staining with propidium iodide.
(§2) CH1/PA‐1 and SW480 cells were harvested by trypsinization, 8×10^4 and 1.2×10^5 cells per well were seeded into 12‐well plates, respectively. The cells were allowed to attach and resume proliferation for 24 h after the seeding. […] After continuous exposure for 24 h at 37 °C and under 5 % CO2, the cells were harvested by trypsinization and centrifuged at 300 g for 3 min. The cells were washed with PBS (1 mL) and resuspended in propidium iodine (PI) containing HSF buffer (600 μL; 0.1 % Triton X‐100, 0.1 % sodium citrate, 50 μg mL^−1 PI in PBS). After incubation overnight at 4 °C in the dark, 5×10^3 cells were measured by flow cytometry with a Millipore Guava easyCyte 8HT instrument (Luminex, USA). Data were evaluated by means of FlowJo software (Tree Star) using Watson Pragmatic algorithms.60 The fitting of the curve was chosen to keep the root mean square error between 1.0 and 2.0, alongside with good fitting visual model.

SW480 [2] = assay: as above; details: for Cell cycle distribution G1, % / Cell cycle distribution G2/M, % / Cell cycle distribution S, %: 24 h, mean ± SD; for Relative change in cell cycle distribution G1, % / Relative change in cell cycle distribution G2/M, % / Relative change in cell cycle distribution S, %: difference to untreated control
Experimental: as §1, §2

A549 = assay: MTT cytotoxicity assay, monolayer culture; details: exposure time 96 h, means ± SDs
Text: (§3) A549 (non‐small cell lung carcinoma), SW480 and HCT‐116 (both colon carcinoma) were kindly provided by Brigitte Marian, Institute of Cancer Research, Department of Medicine I, Medical University of Vienna, Austria. The cell line CH1/PA‐1 (ovarian teratocarcinoma) was kindly provided by Lloyd R. Kelland (CRC Centre for Cancer Therapeutics, Institute of Cancer Research, Sutton, UK). All cell culture media (including supplements) and reagents were obtained from Sigma–Aldrich, and all plasticware from StarLab, unless indicated otherwise.

CH1/PA‐1 [3] = assay: MTT cytotoxicity assay, monolayer culture; details: CH1/PA‐1, MTT assay, exposure time 96 h, means ± SDs
Text: as §3

SW480 [4] = assay: MTT cytotoxicity assay, monolayer culture; details: SW480, MTT assay, exposure time 96 h, means ± SDs
Text: as §3

Molecule | Cell cycle distribution G1, % (CH1/PA‐1 [1]; CH1/PA-1, 5 µM) [%] | Cell cycle distribution G2/M, % (CH1/PA‐1 [1]; CH1/PA-1, 5 µM) [%] | Cell cycle distribution S, % (CH1/PA‐1 [1]; CH1/PA-1, 5 µM) [%] | Relative change in cell cycle distribution G1, % (CH1/PA‐1 [1]; CH1/PA-1, 5 µM) [%] | Relative change in cell cycle distribution G2/M, % (CH1/PA‐1 [1]; CH1/PA-1, 5 µM) [%] | Relative change in cell cycle distribution S, % (CH1/PA‐1 [1]; CH1/PA-1, 5 µM) [%] | Cell cycle distribution G1, % (CH1/PA‐1 [1]; CH1/PA-1, 10 µM) [%] | Cell cycle distribution G2/M, % (CH1/PA‐1 [1]; CH1/PA-1, 10 µM) [%] | Cell cycle distribution S, % (CH1/PA‐1 [1]; CH1/PA-1, 10 µM) [%] | Relative change in cell cycle distribution G1, % (CH1/PA‐1 [1]; CH1/PA-1, 10 µM) [%] | Relative change in cell cycle distribution G2/M, % (CH1/PA‐1 [1]; CH1/PA-1, 10 µM) [%] | Relative change in cell cycle distribution S, % (CH1/PA‐1 [1]; CH1/PA-1, 10 µM) [%] | Cell cycle distribution G1, % (SW480 [2]; SW480, 5 µM) [%] | Cell cycle distribution G2/M, % (SW480 [2]; SW480, 5 µM) [%] | Cell cycle distribution S, % (SW480 [2]; SW480, 5 µM) [%] | Relative change in cell cycle distribution G1, % (SW480 [2]; SW480, 5 µM) [%] | Relative change in cell cycle distribution G2/M, % (SW480 [2]; SW480, 5 µM) [%] | Relative change in cell cycle distribution S, % (SW480 [2]; SW480, 5 µM) [%] | Cell cycle distribution G1, % (SW480 [2]; SW480, 10 µM) [%] | Cell cycle distribution G2/M, % (SW480 [2]; SW480, 10 µM) [%] | other results
Cc1c(O)c(=S)ccn1C [Compound 2 a, 3‐hydroxy‐1,2‐dimethylpyridine‐4(1H)‐thione] | 33 ± 4 | 27 ± 5 | 40 ± 3 | -7 | 3 | 4 | 33 ± 4 | 26 ± 6 | 41 ± 8 | -7 | 2 | 5 | 45 ± 1 | 23 ± 0 | 32 ± 2 | -3 | 4 | -1 | 41 ± 1 | 24 ± 1 | Cell cycle distribution G1, % (CH1/PA‐1 [1]; CH1/PA-1, 20 µM): 35 ± 3%; Cell cycle distribution G2/M, % (CH1/PA‐1 [1]; CH1/PA-1, 20 µM): 28 ± 4%; Cell cycle distribution S, % (CH1/PA‐1 [1]; CH1/PA-1, 20 µM): 37 ± 9%; Relative change in cell cycle distribution G1, % (CH1/PA‐1 [1]; CH1/PA-1, 20 µM): -5%; Relative change in cell cycle distribution G2/M, % (CH1/PA‐1 [1]; CH1/PA-1, 20 µM): 4%; Relative change in cell cycle distribution S, % (CH1/PA‐1 [1]; CH1/PA-1, 20 µM): 1%; Cell cycle distribution S, % (SW480 [2]; SW480, 10 µM): 35 ± 2%; Relative change in cell cycle distribution G1, % (SW480 [2]; SW480, 10 µM): -7%; Relative change in cell cycle distribution G2/M, % (SW480 [2]; SW480, 10 µM): 5%; Relative change in cell cycle distribution S, % (SW480 [2]; SW480, 10 µM): 2%; Cell cycle distribution G1, % (SW480 [2]; SW480, 20 µM): 44 ± 3%; Cell cycle distribution G2/M, % (SW480 [2]; SW480, 20 µM): 22 ± 2%; Cell cycle distribution S, % (SW480 [2]; SW480, 20 µM): 33 ± 2%; Relative change in cell cycle distribution G1, % (SW480 [2]; SW480, 20 µM): -4%; Relative change in cell cycle distribution G2/M, % (SW480 [2]; SW480, 20 µM): 3%; Relative change in cell cycle distribution S, % (SW480 [2]; SW480, 20 µM): 0%; IC50 (A549; Homo sapiens): 66000 ± 6000 nM; IC50 (CH1/PA‐1 [3]; Homo sapiens): 15000 ± 1000 nM; IC50 (SW480 [4]; Homo sapiens): 3200 ± 300 nM
Chlorido[1‐phenyl‐2‐methyl‐3‐oxo‐κO‐pyridine‐4(1H)‐thionato‐κS](η^5‐1,2,3,4,5‐pentamethylcyclopentadienyl)rhodium(III) [Compound 5 b] | 22 ± 6 | 41 ± 4 | 37 ± 5 | -18 | 17 | 1 | 19 ± 7 | 39 ± 5 | 42 ± 1 | -21 | 15 | 6 | 26 ± 13 | 27 ± 9 | 48 ± 7 | -22 | 8 | 15 | 34 ± 10 | 17 ± 6 | Cell cycle distribution G1, % (CH1/PA‐1 [1]; CH1/PA-1, 2.5 µM): 22 ± 2%; Cell cycle distribution S, % (CH1/PA‐1 [1]; CH1/PA-1, 2.5 µM): 43 ± 9%; Relative change in cell cycle distribution G1, % (CH1/PA‐1 [1]; CH1/PA-1, 2.5 µM): -18%; Relative change in cell cycle distribution G2/M, % (CH1/PA‐1 [1]; CH1/PA-1, 2.5 µM): 11%; Relative change in cell cycle distribution S, % (CH1/PA‐1 [1]; CH1/PA-1, 2.5 µM): 7%; decrease in G1 phase (CH1/PA‐1 [1]; CH1/PA‐1 cells, 10 μM): more than 20%; Cell cycle distribution G1, % (SW480 [2]; SW480, 2.5 µM): 37 ± 17%; Cell cycle distribution G2/M, % (SW480 [2]; SW480, 2.5 µM): 23 ± 7%; Cell cycle distribution S, % (SW480 [2]; SW480, 2.5 µM): 40 ± 11%; Relative change in cell cycle distribution G1, % (SW480 [2]; SW480, 2.5 µM): -11%; Relative change in cell cycle distribution G2/M, % (SW480 [2]; SW480, 2.5 µM): 4%; Relative change in cell cycle distribution S, % (SW480 [2]; SW480, 2.5 µM): 7%; Cell cycle distribution S, % (SW480 [2]; SW480, 10 µM): 49 ± 8%; Relative change in cell cycle distribution G1, % (SW480 [2]; SW480, 10 µM): -14%; Relative change in cell cycle distribution G2/M, % (SW480 [2]; SW480, 10 µM): -2%; Relative change in cell cycle distribution S, % (SW480 [2]; SW480, 10 µM): 16%; G1 phase decrease (SW480 [2]; SW480 cells, 5 μM): more than 20%; IC50 (A549): 2000 ± 800 nM; IC50 (CH1/PA‐1 [3]): 660 ± 80 nM; IC50 (SW480 [4]): 670 ± 40 nM
